Laboratory results taken from US20160213647A1, “COMPOSITIONS AND METHODS FOR INHIBITING VIRAL INFECTION” (priority 2015, published 2016).
In brackets after ≈: the same amount, converted by molar mass.

Assays:
[1] = test system: A/Ca/07/09 (H1N1); assay: microbe, parasite or virus in culture; format: cell-based; settings: Influenza A virus, H1N1, HEK-293T; read-out: EC50
[2] = test system: DENV-3; assay: Virus yield reduction assay by qRT-PCR in Vero cells; format: cell-based; settings: Dengue virus, DENV3, Vero, 48 h, read-out: Antiviral Activity IC50
[3] = test system: RHDV isolate Ast/89; assay: Treatment of rabbits infected with RHDV; format: in vivo, New Zealand white rabbits
Protocol: Nine-week-old New Zealand white rabbits in a climatized room at 21° C., with a 12 h light cycle in accordance with the experimental design shown in Table 9 and provided standard dry rabbit food and water ad libitum. For survival studies, 14 animals were injected intramuscularly with 2×10^4 hemagglutination units of RHDV isolate Ast/89 and six of them treated with AR-12 (25 mg/Kg body weight) at 0, 12, 24 and 36 hours post infection ([…]). Animals in those groups were left to die spontaneously.

[4] = test system: JUNV strain XJCl3; assay: microbe, parasite or virus in culture; settings: Mammarenavirus juninense, Vero, 48 h
[5] = test system: A/Udorn/72 (H3N2); assay: microbe, parasite or virus in culture; format: cell-based; settings: Influenza A virus, H3N2, HEK-293T; read-out: EC50
[6] = test system: Human cytomegalovirus; assay: microbe, parasite or virus in culture; format: cell-based; settings: Human betaherpesvirus 5
[7] = test system: JUNV strain IV4454; assay: microbe, parasite or virus in culture; settings: Mammarenavirus juninense, A549, 48 h
[8] = test system: MA-104; assay: Cytotoxicity (CC50) in the in vitro viral screen; format: cell-based; settings: listed as Respiratory Syncytial Virus A2; neutral red
Excerpt: (§1) The results of an exemplary in vitro screen of the activity of AR-12 against various viruses is summarized below.

[9] = Cytotoxicity (CC50) in the in vitro viral screen; format: cell-based; settings: African green monkey, MA-104 cells; listed as Respiratory Syncytial Virus A2; visual
Excerpt: as §1

[10] = test system: DENV-1; assay: Virus yield reduction assay by qRT-PCR in Vero cells; format: cell-based; settings: Dengue virus, DENV1, Vero, 48 h, read-out: Antiviral Activity IC50
[11] = 25 mg/Kg ip, after about 36 hours post infection, versus RHDV

NCC(=O)Nc1ccc(-n2nc(C(F)(F)F)cc2-c2ccc3c(ccc4ccccc43)c2)cc1 [AR-12, 2-amino-N-(4-(5-(phenanthren-2-yl)-3-(trifluoromethyl)-1H-pyrazol-1-yl)phenyl)acetamide]
EC50 [1]: 370 nM | IC50 [2]: 600 nM | survival rates of infected rabbits increased ([3]; 25 mg/Kg ip each 12 hours, at least about 24 hours post infection, p<0.05 Fisher test): about 20% | level of marker of liver toxicity ALT (Alanine transaminase) [3, 11]: decreased | level of marker of liver toxicity AST (Aspartate transaminase) [3, 11]: decreased | level of marker of liver toxicity GGT (gamma-glutamyl transferase) [3, 11]: decreased | level of marker of liver toxicity LDH (lactate dehydrogenase) [3, 11]: decreased | EC50 [4]: 230 ± 10 nM | EC50 [5]: 330 nM | EC50 [6]: > 2400 nM | EC90 [6]: > 2400 nM | EC50 [7]: 550 ± 50 nM | CC50 (neutral red) [8]: 3.2 (visual), 3.2 | CC50 [9]: 3.2 µg/mL (≈ 6.95 µM) | IC50 [10]: 640 nM
